Assay results reported in patent US7754767B2, “Method for treatment of premature ejaculation in humans” (Trinity Laboratories, Inc., priority 2002, dated 2010).
“And” between values parts separate entries of the source, which are not always exact repeats. Equal values may be shown once.

Tests used:
cyclooxygenase-2 (COX-2) = cyclooxygenase-2 (COX-2) (Homo sapiens, UniProt P35354); details: cited from earlier work
[1] = Plasma concentrations of DM after oral DM with or without quinidine (HPLC); format: in vivo, human; details: blood sampled 10-12 hours later, per volunteer
Method: Five patients with a symptom of having premature ejaculation were orally administered 120 mg of DM, with no co-administration of quinidine. Between 10 and 12 hours later, blood was sampled, blood plasma was isolated by centrifugation, and the plasma was analyzed to determine the DM concentration using the HPLC method. During a different week, the same patients were orally administered 60 mg of DM (half the control dosage) and 150 mg of quinidine. Between 10 and 12 hours later, blood was sampled and the plasma was analyzed for DM using thebaine/HPLC. The results, in Table 1, indicate that quinidine causes a major increase in the concentration of DM in the blood plasma.

[2] = molecular target: phosphodiesterase type 5 (PDE5) (Homo sapiens, UniProt O76074); details: in vitro; PDE5 vs PDE6; cited from earlier work
[3] = oral administration, Viagra formulation; cited from earlier work

cyclooxygenase-2 (COX-2), sequence (P35354 18-604, species assumed): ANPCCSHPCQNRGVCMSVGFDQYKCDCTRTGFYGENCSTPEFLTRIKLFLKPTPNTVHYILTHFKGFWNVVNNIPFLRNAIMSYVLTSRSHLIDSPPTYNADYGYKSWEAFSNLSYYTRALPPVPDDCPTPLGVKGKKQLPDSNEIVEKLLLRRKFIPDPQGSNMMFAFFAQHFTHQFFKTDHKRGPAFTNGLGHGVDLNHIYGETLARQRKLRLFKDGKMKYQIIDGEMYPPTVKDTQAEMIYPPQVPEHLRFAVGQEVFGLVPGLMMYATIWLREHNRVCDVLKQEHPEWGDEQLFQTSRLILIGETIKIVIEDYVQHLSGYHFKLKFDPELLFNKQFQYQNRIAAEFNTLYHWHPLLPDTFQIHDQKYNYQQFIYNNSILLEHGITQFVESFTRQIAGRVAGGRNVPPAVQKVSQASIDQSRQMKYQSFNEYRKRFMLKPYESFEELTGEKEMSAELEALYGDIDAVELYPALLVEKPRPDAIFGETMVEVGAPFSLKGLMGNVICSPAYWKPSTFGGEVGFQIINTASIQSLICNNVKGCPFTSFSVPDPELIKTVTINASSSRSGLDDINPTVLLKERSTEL

## CS(=O)(=O)c1ccc(C2=C(c3ccccc3)C(=O)OC2)cc1 [rofecoxib]
cyclooxygenase-2 (COX-2)
  specificity for inhibiting COX-2 (over COX-1): about 350 fold

## COc1ccc2c(c1)[C@@]13CCCC[C@H]1[C@@H](C2)N(C)CC3 [DM, (+)-3-methoxy-N-methylmorphinan]
[1]; 60 mg DM + 150 mg quinidine oral
  PLASMA CONCENTRATION of DM: 34.2 ng/mL and 42.4 ng/mL and 30.2 ng/mL and 26.8 ng/mL and 10.2 ng/mL
[1]; 120 mg DM oral, quinidine 0 mg
  PLASMA CONCENTRATION of DM: 13.5 ng/mL and 15.4 ng/mL and <1 ng/mL (2×) and 5.7 ng/mL

## CCCc1nn(C)c2c(=O)[nH]c(-c3cc(S(=O)(=O)N4CCN(C)CC4)ccc3OCC)nc12 [sildenafil, 1-[[3-(6,7-dihydro-1-methyl-7-oxo-3-propyl-1H-pyrazolo[4,3-d]pyrimidin-5-yl)-4-ethoxyphenyl]sulfonyl]-4-methyl piperazine]
[2]
  potency for PDE5 compared to PDE6: about 10 fold
[3]
  absolute bioavailability: about 40%
